“And” between values parts separate entries of the source, which are not always exact repeats. Equal entries are not always repeated.
Experiment: solvent given as SMILES

SMILES: O=C1CC(c2ccccc2)c2c(c3ccccc3c3nc4ccccc4nc23)O1 (configuration not stated)
- absorption maximum (in ClC(Cl)Cl): 410 nm

SMILES: CCCCCCCCCCOc1cc(OCCCCCCCCCC)cc(C2=C3C(C)=CC(/C=C/c4ccc(OC)cc4)=[N+]3[B-](F)(F)n3c(/C=C/c4ccc(OC)cc4)cc(C)c32)c1
- absorption maximum (in ClC(Cl)Cl): 645 nm

SMILES: COc1ccccc1C1=C2C(C)=CC(C)=[N+]2[B-](F)(F)n2c(C)cc(C)c21
- absorption maximum (in C1CCOC1): 503 nm
- absorption maximum (in CC#N): 499 nm
- absorption maximum (in CC(=O)C(C)(C)C): 502 nm
- absorption maximum (in CC(C)=O): 501 nm
- absorption maximum (in CCCCCC): 504 nm
- absorption maximum (in CCOC(C)=O): 502 nm
- absorption maximum (in CO): 500 nm

SMILES: COc1ccc(C2=[N+]3C(=Nc4c(-c5ccc6ccccc6c5)cc(-c5ccc(OC)cc5)n4[B-]3(F)F)C(c3ccc4ccccc4c3)=C2)cc1
- absorption maximum (in ClCCl): 704 nm

SMILES: C(#Cc1nc(C#Cc2ccccc2)c(C#Cc2ccccc2)c(C#Cc2ccccc2)c1C#Cc1ccccc1)c1ccccc1
- absorption maximum (in ClCCl): 421 nm

SMILES: O=c1c2ccccc2n2c3ccc(-c4ccccc4)cc3c(=O)c3cccc1c32
- absorption maximum (in CC#N): 442 nm
- absorption maximum (in CCCCCC): 434 nm
- absorption maximum (in CCCCOCCCC): 437 nm
- absorption maximum (in CCOC(C)=O): 439 nm
- absorption maximum (in CN(C)C=O): 445 nm

SMILES: C(#Cc1ccccc1)C(C#Cc1ccccc1)=c1c2ccccc2c(=C(C#Cc2ccccc2)C#Cc2ccccc2)c2ccccc12
- absorption maximum (in ClC(Cl)Cl): 540 nm

SMILES: Cc1ccc(/C=C(\c2ccccc2)c2nc3ccccc3s2)cc1
- absorption maximum (in C1CCCCC1): 340 nm
- absorption maximum (in CO): 345 nm

SMILES: CCCCCCC(CCCCCC)N1C(=O)c2cccc3c(-c4ccc(C#N)cc4)ccc(c23)C1=O
- absorption maximum (in CCCCCC): 355.6 nm
- absorption maximum (in CCCCCCCCCCCCCC): 356.2 nm
- absorption maximum (in CCCCCCCCCCCO): 365.8 nm
- absorption maximum (in CCCCO): 367.8 nm
- absorption maximum (in CN(C)C=O): 367.8 nm
- absorption maximum (in Cc1ccccc1): 364.6 nm
- absorption maximum (in ClC(Cl)Cl): 366.4 nm

SMILES: C[Si](C)(C)C#Cc1c2c(=O)c3ccccc3c2c(C#C[Si](C)(C)C)c2c(=O)c3ccccc3c12
- absorption maximum (in ClC(Cl)Cl): 524 nm

SMILES: C[Si]1(C)c2ccc(-c3ccc(-c4cccs4)s3)cc2C=Cc2cc(-c3ccc(-c4cccs4)s3)ccc21
- absorption maximum (in ClCCl): 398 nm

SMILES: CCC1=C(C)C2=C(c3cc(C4=C5C(C)=C(CC)C(C)=[N+]5[B-](F)(F)n5c(C)c(CC)c(C)c54)cc(C4=C5C(C)=C(CC)C(C)=[N+]5[B-](F)(F)n5c(C)c(CC)c(C)c54)c3)c3c(C)c(CC)c(C)n3[B-](F)(F)[N+]2=C1C
- absorption maximum (in C1CCOC1): 534 nm
- absorption maximum (in CC#N): 531 nm
- absorption maximum (in CN(C)C=O): 539 nm
- absorption maximum (in Cc1ccccc1): 537 nm
- absorption maximum (in ClC(Cl)Cl): 538 nm

SMILES: CC\C=C/C=C/C=C/C=C\CCCCCCCC(=O)O
- absorption maximum (in C1COCCO1): 322.7 nm
- absorption maximum (in CCCCCC): 318.9 nm
- absorption maximum (in CCCCCCCCCC): 320.8 nm
- absorption maximum (in CCCCO): 320.6 nm
- absorption maximum (in CCO): 319.2 nm
- absorption maximum (in CCOCC): 318.8 nm
- absorption maximum (in CO): 318.6 nm
- absorption maximum (in ClC(Cl)Cl): 324.8 nm
- absorption maximum (in c1ccccc1): 325.3 nm

SMILES: COC(=O)c1ccc(C#Cc2ccc(N(C)C)cc2)cc1
- absorption maximum (in C1CCCCC1): 359.51 nm
- absorption maximum (in C1CCOC1): 361.89 nm
- absorption maximum (in C1COCCO1): 360.5 nm
- absorption maximum (in CC1CCCO1): 354.5 nm
- absorption maximum (in CC#N): 360.5 nm
- absorption maximum (in CC(C)=O): 362 nm
- absorption maximum (in CC(C)CC(C)(C)C): 364.5 nm
- absorption maximum (in CC(C)O): 360.5 nm
- absorption maximum (in CCCCCCCCCCCCCCCC): 365.5 nm
- absorption maximum (in CCCCCCCCCCCCCCCCCl): 370.49 nm
- absorption maximum (in CCOC(C)=O): 357 nm
- absorption maximum (in CCOCC): 354.5 nm
- absorption maximum (in CN(C)C=O): 367.5 nm
- absorption maximum (in CO): 359 nm
- absorption maximum (in CS(C)=O): 370 nm
- absorption maximum (in Cc1ccccc1): 369.49 nm

SMILES: Cc1ccc(-n2c3ccccc3c3cc(C(=C(C#N)C#N)c4ccccc4)ccc32)cc1
- absorption maximum (in C1CCOC1): 442 nm
- absorption maximum (in CC#N): 445 nm
- absorption maximum (in CC(C)=O): 442 nm
- absorption maximum (in CCOC(C)=O): 442 nm
- absorption maximum (in CO): 447 nm
- absorption maximum (in CS(C)=O): 453 nm
- absorption maximum (in Cc1ccccc1): 447 nm
- absorption maximum (in ClC(Cl)Cl): 458 nm

SMILES: N=c1oc2cccc3c4c(-c5ccccc5)oc5cccc(c(c1-c1ccccc1)c23)c54
- absorption maximum (in ClC(Cl)Cl): 397 nm

SMILES: CNc1ccc2c(c1)-c1ccccc1C2=O
- absorption maximum (in C1CCCCC1): 389 nm
- absorption maximum (in CC#N): 424 nm
- absorption maximum (in CCO): 436 nm
- absorption maximum (in c1ccccc1): 409 nm

SMILES: COc1ccc(-c2c(-c3ccc(OC)cc3)c3c4c(cccc4c2-c2ccccc2)C(=O)c2ccccc2-3)cc1
- absorption maximum (in CC#N): 402 nm
- absorption maximum (in CO): 407 nm

SMILES: Nc1ccccc1C(=O)O
- absorption maximum (in C1CCCCC1): 338 nm
- absorption maximum (in C1COCCO1): 338 nm
- absorption maximum (in CC#N): 336 nm
- absorption maximum (in CC(C)=O): 336 nm
- absorption maximum (in CCO): 334 nm
- absorption maximum (in CO): 334 nm
- absorption maximum (in CS(C)=O): 342 nm
- absorption maximum (in O): 290 nm and 310 nm
- absorption maximum (in OCC(F)(F)F): 320 nm
- absorption maximum (in c1ccccc1): 340 nm

SMILES: COc1ccc(-c2ccc(-c3c4c(nc5ccccc35)-c3cc5c(cc3CC4)-c3nc4ccccc4c(-c4ccc(-c6ccc(OC)cc6)cc4)c3CC5)cc2)cc1
- absorption maximum (in ClC(Cl)Cl): 376 nm

SMILES: O=P1(c2ccccc2)c2cc(N3c4ccccc4Oc4ccccc43)ccc2-c2ccc(N3c4ccccc4Oc4ccccc43)cc21
- absorption maximum (in Cc1ccccc1): 418 nm

SMILES: Brc1ccc(N(c2ccc(/C=C/c3ccncn3)cc2)c2ccc(/C=C/c3ccncn3)cc2)cc1
- absorption maximum (in ClCCl): 417 nm

SMILES: CC(C)(C)c1ccc(-c2c3ccccc3c3n2[B-](F)(F)[N+]2=Cc4c5ccccc5c(-c5ccc(C(C)(C)C)cc5)n4[B-](F)(F)[N+]2=C3)cc1
- absorption maximum (in CC#N): 557 nm
- absorption maximum (in CCCCCC): 568 nm
- absorption maximum (in CN(C)C=O): 566 nm
- absorption maximum (in Cc1ccccc1): 573 nm
- absorption maximum (in ClCCl): 567 nm

SMILES: O=C(c1ccc(N2c3ccccc3Sc3ccccc32)cc1)c1ccc2sc3ccccc3c2c1
- absorption maximum (in C1CCOC1): 330 nm

SMILES: COC(=O)c1ccc(/C=C2\N=C(c3ccc([N+](=O)[O-])cc3)NC2=O)cc1
- absorption maximum (in C1COCCO1): 405 nm

SMILES: c1cc2cc(c1)c1ccc3c(c1)c1cc(ccc1[C@]14OCCO[C@]31OCCO4)c1ccc3c(c1)c1cc(ccc1[C@]14OCCO[C@]31OCCO4)c1cccc2c1
- absorption maximum (in ClC(Cl)Cl): 260 nm

SMILES: COc1ccc(C2=C/C(=C\c3ccc(C#N)cc3)C(=O)O2)cc1OC
- absorption maximum (in C1COCCO1): 428 nm

SMILES: [O-][n+]1c(/C=C/c2ccccc2)nc(N2CCOCC2)c2c1CCCC2
- absorption maximum (in ClCCl): 400 nm

SMILES: Cc1ccccc1Oc1ccc2c3c(cccc13)C(=O)N(CCO)C2=O
- absorption maximum (in ClC(Cl)Cl): 355 nm

SMILES: COc1cccc(OC)c1-c1c2ccc(=[N+]3CCNCC3)cc-2oc2cc(N3CCNCC3)ccc12
- absorption maximum (in CCO): 561 nm
- absorption maximum (in O): 542 nm

SMILES: COc1ccc(C2=C(c3ccc(F)cc3)C(c3ccccc3)=[N+]3C2=Nc2c(-c4ccc(OC)cc4)c(-c4ccc(F)cc4)c(-c4ccccc4)n2[B-]3(F)F)cc1
- absorption maximum (in Cc1ccccc1): 653 nm

SMILES: CN(C)c1ccc(/C=C/c2cc(/C=C/c3ccc(N(C)C)cc3)nc(/C=C/c3ccc(C(F)(F)F)cc3)n2)cc1
- absorption maximum (in ClCCl): 429 nm

SMILES: CCCCCCCC[Si](C)(C)c1cccc2ccccc12
- absorption maximum (in C1CCCCC1): 294 nm

SMILES: CCC12C(=C3C(=C4c5ccc(-c6ccc(C(C)=O)s6)cc5S(=O)(=O)C41CC)C(F)(F)C(F)(F)C3(F)F)c1ccc(-c3ccc(C(C)=O)s3)cc1S2(=O)=O (configuration not stated)
- absorption maximum (in C1COCCO1): 485 nm

SMILES: CCOC(=O)c1c(-c2cc3ccc(OC)cc3oc2=O)nn(-c2ccccc2)c1C(=O)OCC
- absorption maximum (in ClCCl): 337 nm

SMILES: COc1ccc2c3c(c4ccc(C(C)(C)C)cc4c2c1)=C(c1cc(OC)c(OC)c(OC)c1)C1=Nc2c(-c4cc(OC)c(OC)c(OC)c4)c4c5ccc(C(C)(C)C)cc5c5cc(OC)ccc5c4n2[B-](F)(F)[N+]=31
- absorption maximum (in Cc1ccccc1): 797 nm

SMILES: Cc1ccc([C@@H]2C[C@](O)(c3ccccn3)C[C@](O)(c3ccccn3)[C@H]2C(=O)c2ccc(N(c3ccccc3)c3ccccc3)cc2)cc1
- absorption maximum (in C1CCOC1): 366 nm
- absorption maximum (in CC#N): 364 nm
- absorption maximum (in CCO): 366 nm
- absorption maximum (in CCOC(C)=O): 366 nm
- absorption maximum (in CN(C)C=O): 360 nm
- absorption maximum (in ClCCl): 372 nm
- absorption maximum (in c1ccccc1): 370 nm

SMILES: Cc1ccc2c(c1)C(=O)c1ccncc1-2
- absorption maximum (in CC#N): 408.95 nm
- absorption maximum (in CCCCCC): 408.95 nm

SMILES: CC1(C)CC(=O)c2ccccc2N1
- absorption maximum (in CCO): 383 nm

SMILES: CC(C)(C)c1ccc2c(c1)oc1nc3oc4ccc(-n5c6ccccc6c6ccccc65)cc4c3cc12
- absorption maximum (in ClC(Cl)Cl): 350 nm

SMILES: I[I-]I
- absorption maximum (in O): 351.77 nm

SMILES: CC(=O)OCOC(=O)CN(CC(=O)OCOC(C)=O)c1ccccc1OCCOc1cc(NC(=O)c2ccc3c(c2)C(=O)OC32c3cc(Cl)c(OC(C)=O)cc3Oc3cc(OC(C)=O)c(Cl)cc32)ccc1N(CC(=O)OCOC(C)=O)CC(=O)OCOC(C)=O
- absorption maximum (in O): 506 nm

SMILES: CC(C)(C)Nc1cc2sc3cc(NC(C)(C)C)c(F)cc3c(=O)c2cc1F
- absorption maximum (in CCO): 373 nm

SMILES: Cc1cc(C)c(C2=C3C=C(/C=C/C(=O)OC(C)(C)C)C=[N+]3[B-](F)(F)n3c2ccc3N2CCOCC2)c(C)c1
- absorption maximum (in CC#N): 480 nm
- absorption maximum (in CCCCCC): 532 nm
- absorption maximum (in CN(C)C=O): 485 nm
- absorption maximum (in CO): 483 nm
- absorption maximum (in Cc1ccccc1): 525 nm
- absorption maximum (in ClCCl): 497 nm

SMILES: CCCCc1ccc(-n2c3c4cc(F)ccc4nc(-c4ccc(OC)cc4)c3c3c2c2c(-c4ccc(OC)cc4)nc4ccc(F)cc4c2n3-c2ccc(CCCC)cc2)cc1
- absorption maximum (in ClC(Cl)Cl): 305 nm

SMILES: CCOC(=O)c1cc(C(=O)OCC)c2cccc(O)c2n1
- absorption maximum (in CCO): 369 nm

From the Deep4Chem optical property database
